# Assay results as given in patent US20260207570A1, “OPTIMIZED DOSING OF LERIGLITAZONE” (MINORYX THERAPEUTICS S.L., priority 2022, published 2026).
# Values joined by “and” are separate entries in the source; they are usually repeats but may differ in a detail not shown here. Equal values may be shown once.
# Assays:
# [1] = Phase 1 safety and tolerability (treatment-emergent adverse events); assay type: in vivo, human
# Description: Study design: A phase 1, randomized, double blind, placebo-controlled, single-center clinical study in 33 male healthy volunteers (HV) (19-54 years, 63.2-95.7 Kg) was conducted with leriglitazone HCl and divided in two parts: a single ascending dose (SAD) with three dose levels (30, 90 and 270 mg) in fasted conditions, followed with two dose levels (90 and 270 mg) in fed conditions; a multiple ascending dose (MAD) with a double-blind, parallel-design with two dose levels (135 and 270 mg) for 8 days and a separate cohort of subjects in an open-label parallel design with two dose levels (135 and 270 mg) including cerebrospinal fluid (CSF) collection on day 8. In the fasted conditions a fasting period of at least 4 hours was required before obtaining plasma samples. The food effect (FE) was assessed by comparing fasted with fed conditions (dosing after a high-fat breakfast per FDA definition with a calculated caloric content of 918 kcal). In the MAD part (fed) the medication was taken before a normal breakfast. Leriglitazone HCl was supplied by ChemConnection and an oral suspension of leriglitazone (20% w/v kleptose, 2% ethanol in 100 mM phosphate buffer pH=7.8) at 6 mg/ml was used in the study. Safety: Safety and tolerability assessments consisted of adverse events (AEs), clinical laboratory, vital signs, 12-lead electrocardiogram (ECG), and physical examination.
# [2] = Biliary clearance in sandwich-cultured hepatocytes; assay type: in vitro ADME; details: sandwich-cultured hepatocytes
# [3] = test system: sandwich-cultured hepatocytes; experiment: Biliary clearance in sandwich-cultured hepatocytes; assay type: in vitro ADME; details: after scaling up
# [4] = Population pharmacokinetic model of studies MT-1-01, MT-2-01, MT-2-03; assay type: in vivo, human
# Description: MT-1-01 (healthy volunteers), MT-2-01 (adult men with adrenomyeloneuropathy (AMN), MT-2-03 (men, women≥12 years with Friedreich's Ataxia).
# A total of 2140 valid plasma concentration measurements from 130 individuals were used in the analysis. Full PK profiles were available only from MT-1-01. In MT-2-03 only pre-dose (trough) concentrations were taken at multiple visits, while in MT-2-01 also sparse post-dose samples were taken. Less than 1% of all samples were below the limit of quantification.
# 2. Structural model-development using only data from healthy volunteers (MT-1-01) and inclusion of key structural covariates (food, body weight).
# 3. Re-estimation of parameters on the full analysis dataset (MT-1-01, MT-2-01, MT-2-03). Finalization of base model.
# 4. Stepwise automatic covariate modeling (SCM) using the base model.
# NONMEM v7.5 was used for the population modelling. The RxODE package (v0.9.2) for R (v4.0.2) was used for the simulations.
# Automated stepwise covariate modeling (SCM) using a forward addition/backward deletion procedure as implemented in PsN, Karlsson and Savic, C/in Pharmacol Ther 82:17-20 (2008), was applied to the base model on the complete analysis dataset. To improve the computation time of the SCM, PsN generates a linearized form of the model applying a Taylor-transformation on which then the covariate function is applied. Anderson et al., Annu Rev Pharmacol Toxicol 48:303-332 (2008). The final model from the SCM procedure was then rerun in its original, untransformed form.
# The following covariates were tested in the model for their association with CL and relative bioavailability (F): • BMI • Height • Age • Ethnicity (Hispanic yes/no) • Sex
# [5] = target: T1, CYP2C8 (Homo sapiens, UniProt P10632); experiment: CYP2C8 contribution to clearance (fm, CLint) for the PBPK model; details: before accounting for biliary and renal clearance
# T1 sequence (P10632 1-490): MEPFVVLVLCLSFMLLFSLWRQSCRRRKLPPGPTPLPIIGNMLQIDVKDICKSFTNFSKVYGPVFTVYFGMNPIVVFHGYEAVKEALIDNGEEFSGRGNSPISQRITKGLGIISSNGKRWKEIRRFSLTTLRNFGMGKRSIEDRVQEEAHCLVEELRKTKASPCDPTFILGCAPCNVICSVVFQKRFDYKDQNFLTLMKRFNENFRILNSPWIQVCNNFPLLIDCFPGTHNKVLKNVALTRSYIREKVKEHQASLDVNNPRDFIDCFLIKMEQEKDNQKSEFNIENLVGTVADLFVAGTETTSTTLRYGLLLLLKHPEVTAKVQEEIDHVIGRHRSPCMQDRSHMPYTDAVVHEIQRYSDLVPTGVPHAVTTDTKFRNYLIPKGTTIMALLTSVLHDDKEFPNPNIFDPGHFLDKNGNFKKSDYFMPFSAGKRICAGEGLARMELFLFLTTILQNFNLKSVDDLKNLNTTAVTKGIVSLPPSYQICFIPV
# Description: CYP2C8 and CYP3A4 were identified in vitro as the major contributing enzymes of leriglitazone with CYP2C8 mostly responsible for the formation of the main metabolite M3. Kinetic parameters of human CYP2C8 and CYP3A4 mediated metabolism of leriglitazone were studied in in vitro studies using recombinant CYP3A4 and CYP2C8 enzymes (ADMESCOPE, Finland). […] As the disappearance of leriglitazone was very slow especially at high initial concentrations, the accuracy of the fit was not as good as based on M3 formation. […] Thus, it was not possible to fit the kinetic parameters Km and Vmax.
compound,measurement,setting,value
"CC(O)c1ccc(CCOc2ccc(CC3SC(=O)NC3=O)cc2)nc1 (centres unmarked) [Leriglitazone, 5-[[4-[2-[5-(1-hydroxyethyl)pyridin-2-yl]ethoxy]phenyl]methyl]-1,3-thiazolidine-2,4-dione]",Gastrointestinal disorders: E,"[1]; 135 mg, N = 9",2
same,Gastrointestinal disorders: n (%),"[1]; 135 mg, N = 9",1 (11)
same,General disorders and administration site conditions: E,"[1]; 135 mg, N = 9",1
same,General disorders and administration site conditions: n (%),"[1]; 135 mg, N = 9",1 (11)
same,Metabolism and nutrition disorders: E,"[1]; 135 mg, N = 9",1
same,Metabolism and nutrition disorders: n (%),"[1]; 135 mg, N = 9",1 (11)
same,Musculoskeletal and connective tissue disorders: E,"[1]; 135 mg, N = 9",3
same,Musculoskeletal and connective tissue disorders: n (%),"[1]; 135 mg, N = 9",3 (33)
same,Nervous system disorders: E,"[1]; 135 mg, N = 9",5
same,Nervous system disorders: n (%),"[1]; 135 mg, N = 9",3 (33)
same,Renal and urinary disorders: E,"[1]; 135 mg, N = 9",1
same,Renal and urinary disorders: n (%),"[1]; 135 mg, N = 9",1 (11)
same,TEAEs Total: E,"[1]; 135 mg, N = 9",13
same,TEAEs Total: n (%),"[1]; 135 mg, N = 9",5 (56)
same,Eye disorders: E,"[1]; 270 mg, N = 8",2
same,Eye disorders: n (%),"[1]; 270 mg, N = 8",1 (13)
same,Gastrointestinal disorders: E,"[1]; 270 mg, N = 8",4
same,Gastrointestinal disorders: n (%),"[1]; 270 mg, N = 8",3 (38)
same,General disorders and administration site conditions: E,"[1]; 270 mg, N = 8",1
same,General disorders and administration site conditions: n (%),"[1]; 270 mg, N = 8",1 (13)
same,Infections and infestations: E,"[1]; 270 mg, N = 8",2
same,Infections and infestations: n (%),"[1]; 270 mg, N = 8",2 (25)
same,Musculoskeletal and connective tissue disorders: E,"[1]; 270 mg, N = 8",1
same,Musculoskeletal and connective tissue disorders: n (%),"[1]; 270 mg, N = 8",1 (13)
same,Nervous system disorders: E,"[1]; 270 mg, N = 8",3
same,Nervous system disorders: n (%),"[1]; 270 mg, N = 8",3 (38)
same,"Respiratory, thoracic and mediastinal disorders: E","[1]; 270 mg, N = 8",3
same,"Respiratory, thoracic and mediastinal disorders: n (%)","[1]; 270 mg, N = 8",3 (38)
same,TEAEs Total: E,"[1]; 270 mg, N = 8",16
same,TEAEs Total: n (%),"[1]; 270 mg, N = 8",8 (100)
same,hepatocyte CLint,[2],0.358 µL/min/1e6 cells
same,microsomal CLint,[2],0.5 µL/min/mg
same,biliary clearance as fraction of total clearance (feBIL),[3],19.5%
same,lower CL in women,[4]; popPK covariate sex,14.7%
same,reduction of absorption rate when taken with food,[4]; popPK estimate,82.9%
same,reduction of bioavailability by food,[4]; popPK estimate,4.8% and < 5%
same,typical rate of absorption,"[4]; taken without food, popPK estimate",5.2 h⁻¹
same,"share of metabolism, CYP2C8",[5],63.7%
